The values below come from US12516016B2, “GPX4 inhibitors, pharmaceutical compositions thereof, and their use for treating GPX4-mediated diseases” (EUBULUS BIOTHERAPEUTICS (HONG KONG) LIMITED, priority 2020, dated 2026).

pEC50: −log10 of the molar value.

Common to all, as to assay type: cell-based
For test [1], the system named is hepatocellular carcinoma cell line Hub-7. Description: Cell proliferation assay (CELL-TITER GLO cell viability). To be noted: 24 h, Hub-7 cells, 24 h incubation, read-out: Inhibition of Cell Proliferation EC50. A digest of the protocol:
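[…] cells (4,000/well) seeded overnight, then exposed 24 h to compound from 10 μM in 3-fold serial dilutions. Viability read by CELL-TITER GLO luminescence; EC50 values derived.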

Test [2] has as its system hepatocellular carcinoma cell line. Put plainly: Anti-proliferation activity in the presence of a ferroptosis inhibitor. The following applies: in the presence of ferrostatin-1 (1 μM); read-out: Inhibition of Cell Proliferation EC50, Ferrostatin-1. Here is the method:
(§1) The activity of a test compound was determined in a cell proliferation assay using the hepatocellular carcinoma cell line […]. Cells (4,000 cells per well) were seeded in a 96-well tissue culture plate. After incubated overnight, a test compound was added at predetermined concentrations, starting with 10 μM and followed by 3-fold serial dilution. After the cells were incubated for 24 h, cell viability was determined using a CELL-TITER GLO® assay. The CELL-TITER GLO® reagent (50 μL) was added to each well and the luminescence was measured by a multimode microplate reader after a brief period of shaking. EC50 values were determined for the test compound. The results are summarized in Table 1, wherein A represents a value no greater than 100 nM, B represents a value greater than 100 nM but no greater than 500 nM, C represents a value greater than 500 nM but no greater than 2 μM, D represents a value greater than 2 μM but no greater than 10 μM; and E represents a value greater than 10 μM.
(§2) The anti-proliferation activity of compound 80 was tested in the presence of an ferroptosis inhibitor, ferrostatin-1 (1 μM) or liproxstatin-1 (1 μM).

Test [3] relates to hepatocellular carcinoma cell line Hub-7. Described as above. Here is the method: as §1, §2

As to `C#CC(=O)N(c1cccc(Cl)c1)C1(C(=O)NCc2ccccc2)CCOCC1` [A80, N-Benzyl-4-(N-(3-chlorophenyl)propiolamido)tetrahydro-2H-pyran-4-carboxamide], the pEC50 in test [1] is not below 7.00; in test [2] it was less than 5.00; in test [3] (in the presence of liproxstatin-1 (1 μM), read-out: Inhibition of Cell Proliferation EC50, Liproxstatin-1), less than 5.00; in test [3] (read-out: Inhibition of Cell Proliferation EC50, No Ferroptosis inhibitor) it was not below 7.00.
